The test system of test [1] is U937 cells. The experiment in a line: Counter screen: cell viability of U937 cells treated with compound without the TSQ cocktail (off-target effect). The settings on record: Homo sapiens, U-937, compound in DMSO without the TSQ cocktail, cell viability by CelltiterGlo, read-out: Off-target effect (IC50 cell-based assay). The protocol: (§1) Cell Line ID: U937 human histiocytic leukemia cell line.
(§2) The cellular assay was carried out according to the following steps: • 1. Each well was prepared by sequential addition of: • a. DMSO (control; columns 1-2 and 23-24) or compound in DMSO—addition was performed using acoustic transfer of nl volumes of stock compound to give final test concentrations of 36, 12, 4, 1.3, 0.44, 0.148, 0.049, 0.016, 0.005 and 0.002 μM. All wells were backfilled with DMSO to a final total volume in the well of 100 nl. • b. Following compound/DMSO addition in step (a), 40 μL of cell suspension (5×10^5 cells/mL) was added to provide a final cell concentration of 20,000 cells per well, and • c. Following cell addition in step (b), 10 μL of 5×TSQ cocktail (except to positive controls; […]) was added to each well. • 2. After 48 hours, plate was removed from the 37° C. incubator and equilibrated to room temperature for 45 minutes. • 3. 15 μL of room temperature CellTitre-Glo2™ (Promega™) was added to each well. • 4. Shook plates for 2 minutes (˜600 rpm) and incubated at room temperature for 15 minutes to allow signal to stabilise. • 5. Read luminescence readout on a plate reader.
(§3) Curve fitting: 10-point titration curves are fitted with the 4-parameter logistic nonlinear regression model and the IC50 reported is the inflection point of the curve
Counter screen: In parallel, all compounds were tested for their ability to affect cell viability. The same U937 cells were treated with compound in DMSO without the TSQ cocktail. This counter screen enabled evaluation of off-target effects. In this case, cell viability was measured by CelltiterGlo.

Test [2] concerns the target T1, MLKL (full length) (Homo sapiens, UniProt Q8NB16).
T1 construct: purchased DiscoverX (KINOMEscan service); host or cells: E. coli BL21-derived host (T7 phage) or HEK-293
T1 sequence (Q8NB16 1-471): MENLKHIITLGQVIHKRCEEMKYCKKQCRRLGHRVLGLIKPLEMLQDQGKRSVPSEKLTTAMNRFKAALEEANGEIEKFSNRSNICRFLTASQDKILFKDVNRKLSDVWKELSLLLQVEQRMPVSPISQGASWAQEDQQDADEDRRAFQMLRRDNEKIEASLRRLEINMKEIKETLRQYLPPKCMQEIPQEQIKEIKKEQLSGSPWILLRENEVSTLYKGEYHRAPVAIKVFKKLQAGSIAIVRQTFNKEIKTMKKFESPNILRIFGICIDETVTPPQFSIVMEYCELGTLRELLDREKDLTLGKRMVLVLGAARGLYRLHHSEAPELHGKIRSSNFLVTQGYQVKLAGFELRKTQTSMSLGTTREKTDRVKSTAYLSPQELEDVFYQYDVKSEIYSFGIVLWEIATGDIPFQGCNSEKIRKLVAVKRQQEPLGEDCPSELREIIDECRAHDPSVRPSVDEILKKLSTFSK
The experiment in a line: KINOMEscan binding affinity assay, MLKL. The settings on record: equilibrium dissociation constant. The text has this: (§4) The Hill Slope was set to −1.

Test [3] concerns the target T2, RIP1 (Homo sapiens, UniProt Q13546).
T2 construct: purchased DiscoverX (KINOMEscan service); host or cells: E. coli BL21-derived host (T7 phage) or HEK-293
T2 sequence (Q13546 1-671): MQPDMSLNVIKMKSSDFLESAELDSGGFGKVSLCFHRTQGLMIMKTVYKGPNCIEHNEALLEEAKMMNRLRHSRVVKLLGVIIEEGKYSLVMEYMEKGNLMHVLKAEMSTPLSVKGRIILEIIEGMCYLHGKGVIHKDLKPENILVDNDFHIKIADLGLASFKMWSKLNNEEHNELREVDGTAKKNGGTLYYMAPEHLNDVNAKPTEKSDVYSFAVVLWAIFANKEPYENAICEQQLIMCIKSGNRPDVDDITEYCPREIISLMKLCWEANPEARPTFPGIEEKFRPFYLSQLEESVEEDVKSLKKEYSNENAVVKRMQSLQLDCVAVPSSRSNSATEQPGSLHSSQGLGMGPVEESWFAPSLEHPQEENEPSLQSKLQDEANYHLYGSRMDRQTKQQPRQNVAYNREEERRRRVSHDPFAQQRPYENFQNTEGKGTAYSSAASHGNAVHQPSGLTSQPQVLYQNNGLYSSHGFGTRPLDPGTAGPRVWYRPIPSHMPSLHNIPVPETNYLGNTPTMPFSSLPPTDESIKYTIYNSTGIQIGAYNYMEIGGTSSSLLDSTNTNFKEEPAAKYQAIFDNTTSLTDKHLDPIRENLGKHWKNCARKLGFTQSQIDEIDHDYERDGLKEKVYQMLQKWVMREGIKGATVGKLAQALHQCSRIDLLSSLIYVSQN
The experiment in a line: KINOMEscan binding affinity assay, RIP1. The settings on record: equilibrium dissociation constant.
Source text: as §4

Test [4] concerns U937 human histiocytic leukemia cell line. The experiment in a line: Cellular assay: inhibition of TSQ induced necroptosis, 384 well plate format. The settings on record: U-937, U937 cells, TSQ cocktail (TNF, Smac mimetic, Q-VD-OPh), 48 hours, CellTitre-Glo, read-out: Inhibition of TSQ-induced necroptosis (IC50 cell-based assay). The protocol:
Cellular Assay: Screening Compounds for Inhibition of TSQ Induced Necroptosis, 384 Well Plate Format.
as §1
Cell Concentration (cells/well): Final cell density is 20000 cells per well.
Cell growth medium: HT-RPMI medium+7.4% Fetal Bovine Serum (FBS). Cells are cultured in Corning 150 cm^2 tissue culture flasks with vented caps at 37° C./5% CO2.
Incubation: Plates were incubated at 37° C./5% CO2 in a humidified incubator for 48 hours following addition of compounds and death stimuli (TSQ cocktail).
Compound concentration: 36 μM starting concentration, 1:3 dilution, 10 point
DMSO final concentration (% v/v): 0.3%.
Compounds in TSQ cocktail (T: TNF; S: Smac mimetic; Q: Q-VD-OPh) and their final concentrations:
hTNF-Fc (100 ng/ml)—produced by standard procedures as shown in Bossen et al., J Biol Chem, 2006, 281(20), 13964-13971.
Compound A (500 nM)—Smac mimetic, Tetralogic and SYNthesis med chem Q-VD-OPh (10 μM)—MP Biomedicals
as §2
Percent viability was calculated for each compound according to equation (2):
% viability=100×((RawData−NSA)/(TA−NSA) (2)
wherein RawData is the readout of any cell containing a compound of the invention TA is the total activity provided by the luminescence readout from DMSO only wells (columns 2 and 24)=100% viability NSA is the non-specific activity provided by DMSO+TSQ wells (columns 1 and 23)=0% viability
as §3
Analysis: Data was loaded into Dotmatics™ and visualised using the Tibco® Spotfire™ software. points titration curve were fitted with the 4 parameter logistic nonlinear regression model and the IC50 reported reflect the inflection point of the curve for curve fitting.
Assay involving the TSQ cocktail (T: TNF; S: Smac mimetic; Q: Q-VD-OPh): TSQ treatment ensures that cells specifically undergo necroptotic cell death. TNF activates the TNF receptor, Smac mimetic directs the signal away from proinflammatory signaling and toward the RIP1/RIP3-mediated cell death pathways, and Q-VD-OPh ensures that the apoptotic response is blocked leaving only the programmed necrosis response. The compounds' activity (solution in DMSO) tested in this TSQ-induced assay was evaluated by determining the number of viable cells in culture by measuring the amount of ATP present as measured by CelltiterGlo.

Test [5] deals with T3, RIP3 (Homo sapiens, UniProt Q9Y572).
T3 construct: purchased DiscoverX (KINOMEscan service); host or cells: E. coli BL21-derived host (T7 phage) or HEK-293
In words: KINOMEscan binding affinity assay, RIP3. The settings on record: equilibrium dissociation constant.
Source text: as §4

Some results are limits rather than exact numbers.

T3 sequence (Q9Y572 whole entry): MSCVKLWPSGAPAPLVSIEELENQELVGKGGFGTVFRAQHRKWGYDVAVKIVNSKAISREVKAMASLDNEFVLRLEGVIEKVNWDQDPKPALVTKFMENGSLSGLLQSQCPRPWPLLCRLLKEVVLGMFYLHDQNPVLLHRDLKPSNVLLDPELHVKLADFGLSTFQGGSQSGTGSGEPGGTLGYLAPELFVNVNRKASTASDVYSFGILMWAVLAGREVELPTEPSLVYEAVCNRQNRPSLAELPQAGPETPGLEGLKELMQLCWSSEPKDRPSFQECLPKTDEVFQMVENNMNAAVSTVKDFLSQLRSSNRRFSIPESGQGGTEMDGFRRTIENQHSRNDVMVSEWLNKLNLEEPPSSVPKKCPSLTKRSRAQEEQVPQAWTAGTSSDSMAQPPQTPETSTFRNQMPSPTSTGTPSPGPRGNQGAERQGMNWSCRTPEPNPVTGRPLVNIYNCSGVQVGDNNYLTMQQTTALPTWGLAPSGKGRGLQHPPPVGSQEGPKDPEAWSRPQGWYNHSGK

In the case of `NC(=O)c1c(-c2ccc(NC(=O)Cc3ccccc3C(F)(F)F)cc2)n[nH]c1Nc1cnccn1` [Compound 27, 5-(pyrazin-2-ylamino)-3-(4-(2-(2-(trifluoromethyl)phenyl)acetamido)phenyl)-1H-pyrazole-4-carboxamide], the IC50 in test [1] and in test [4] was greater than 1000 nM throughout. Also, the Kd in test [2] is less than 100 nM; in test [3], greater than 1000 nM; in test [5] it was greater than 1000 nM.

For the origin of these results see US20230227428A1 (Anaxis Pharma Pty Ltd, priority 2020, published 2023).
